Tests used:
HeLa cells [1] = assay: AdU labeling of HeLa cells, stained with Alexa568-alkyne; assay type: cell-based; conditions: 10 μM AdU overnight, 10 μM Alexa568-alkyne; FIG. 16
Experimental: Here HeLa cells were labeled overnight in 10 μM AdU and then stained with 10 μM Alexa568-alkyne using the conditions described herein for staining cells labeled with EdU. FIG. 16 presents two pictures of a field of the stained HeLa cells.

HeLa cells [2] = assay: EdU labeling of HeLa cells, fixed/permeabilized, stained with Xrhodamine-azide (click chemistry); assay type: cell-based; conditions: 1 μM EdU, cell in anaphase, FIG. 11
Experimental: Ethynyl-dU (EdU) was used in tissue culture media (DMEM complemented with penicillin, streptomycin, and fetal calf serum (FCS)) ranging from 10 nM to 1 μM depending on the length of the labeling pulse. For example, if cells to be labeled were synchronized in the S phase, 100 nM to 1 μM of EdU was used for 1 to 2 hours. After labeling, the cells were washed 3 or 4 times with PBS and then tissue culture media was added.
Staining Solution: 100 mM Tris pH 8.5 (from 2 M stock in water), 0.5 to 1 mM CuSO4 (from 1 M stock in water), 0.5 to 1 μM fluorophore-azide (from approximately 10-100 mM stock in DMSO), and water (as required) were mixed together. Ascorbic acid (from a […] stock in water) was then added to this solution to a final concentration of 50-100 mM, and the resulting staining solution is mixed thoroughly using a vortex.
Cells can be fixed by any suitable method, e.g., cells can be fixed by aldehyde fixation (formaldehyde or glutaraldehyde), with or without permeabilization. After fixation, the cells were washed in buffer with or without non-ionic detergent (0.2-0.5% Triton X100). Before staining, cells were rinsed with buffer without detergent (PBS or TBS). The cells were then incubated in the presence of the staining solution for at least 30 minutes. Overnight staining is preferably performed in a cold room. […]

HeLa cells [3] = assay: Time-lapse fluorescence imaging of EdU-labeled live cells stained with TMR-propyl-azide; assay type: cell-based; conditions: 200 nM TMR-propyl-azide, 25 mM ascorbate, 1 mM copper (II) sulfate, 37° C.; FIG. 7
Experimental: Ascorbic acid (from a […] stock in water) was then added to this solution to a final concentration of 50 mM, and the resulting staining solution is mixed thoroughly.
Washes with methanol or ethanol may be performed to obtain low background
To facilitate live microscopic imaging, EdU-labeled cells were plated in coverslip chambers which were mounted on the heated stage (37° C.) of an inverted Nikon TE200)U microscope equipped for wide-field fluorescence microscopy as well as spinning-disk confocal fluorescence microscopy (Yokogama spinning disk confocal head from Perkin-Elmer). […] The cells were imaged by time-lapse fluorescent microscopy (one frame every 15 seconds) to detect the TMR signal accumulating in the nuclei of the EdU-labeled cells.

[4] = tested on: mouse intestine and brain; assay: In vivo EdU labeling of mice, organ sections stained with Xrhodamine-azide and Hoechst; conditions: 200 micrograms EdU intraperitoneally, organs harvested three days later
Experimental: BLAB/C mice were injected with 200 micrograms of EdU intraperitoneally. Three days later, organs were harvested, fixed, embedded in paraffin and sectioned. The sections were then de-waxed and stained with Xrhadomine-azide for 5 minutes, stained with Hoechst, washed and then mounted.

HeLa cells [5] = assay: Tracing a single sister chromatid: EdU pulse, chase of two cell cycles, Alexa568-azide stain; assay type: cell-based; conditions: EdU pulse during DNA synthesis, Alexa568-azide with permeabilization, FIG. 13
From the text: The purpose of the experiment reported herein was to label only one DNA molecule of the two that form a chromosome. That was accomplished by pulsing HeLa cells with EdU during DNA synthesis followed by a chase lasting two cell cycles, as depicted on FIG. 12. […] EdU allowed very nice resolution imaging of chromosomes in cells as shown by FIG. 13.

Row | SMILES | detection of AdU in labeled cells (HeLa cells [1]) | EdU stain of cellular DNA (fluorescence microscopy) (HeLa cells [2]) | time to complete EdU detection on live cells (HeLa cells [3]) | EdU incorporation in intestine section ([4]; FIG. 8) | EdU-labeled cells in brain section ([4]; FIG. 10) | DNA molecules of a chromosome labeled after first and second mitosis (HeLa cells [5])
1 | [N-]=[N+]=Nc1cn([C@H]2C[C@H](O)[C@@H](CO)O2)c(=O)[nH]c1=O [AdU, 5-azido-2′-deoxyuridine] | clearly detected in the nuclei of the labeled interphase cells as well as in the condensed chromosomes of mitotic cells | – | – | – | – | –
2 | C#Cc1cn([C@H]2C[C@H](O)[C@@H](CO)O2)c(=O)[nH]c1=O [EdU, 5-ethynyl-2′deoxyuracil] | – | only the DNA replicating during the pulse was labeled | complete within minutes | The cells with red nuclei are the cells which incorporated EdU and their descendants | A sole EdU-labeled cell can be easily identified | In the first mitosis after labeling, both DNA molecules were labeled while in the second mitosis only one DNA molecule was labeled
